Measured values published in patent US6495591B1, “Fungal efflux pump inhibitors” (Essential Therapeutics, Inc., priority 1997, dated 2002).
Like-named read-outs stand apart in the source and are kept apart here.

Key:
Type in all cases: cell-based
[1] = test system: YEM 13 C. albicans BEN up; test: microbe, parasite or virus in culture; settings: YEM 13, 24 hrs, 80% inhibition; for MIC of compound in the presence of fluconazole (+): 1/8 × MIC of fluconazole
[2] = test system: YEM 15 C. albicans, CDR1CDR2 up; test: microbe, parasite or virus in culture; settings: YEM 15, 24 hrs, 80% inhibition; for MIC of compound in the presence of fluconazole (+): 1/8 × MIC of fluconazole
YEM 53 C. krusei = test: FEPI MIC with/without 1/8 fluconazole MIC at 24 hrs (Table 11)
[3] = test system: YEM 17 C. glabrata, CgCDR up; settings: 24 hrs, 80% inhibition; for MIC of compound in the presence of fluconazole (+): 1/8 × MIC of fluconazole
YEM 51 C. glabrata wt = test: FEPI MIC with/without 1/8 fluconazole MIC at 24 hrs (Table 11)
YEM 30 C. albicans wt = test: as above
[4] = test system: YEM 24 C. albicans ΔCDR1, ΔCDR2; test: microbe, parasite or virus in culture; settings: YEM 24, 24 hrs, 80% inhibition; for MIC of compound in the presence of fluconazole (+): 1/8 × MIC of fluconazole
[5] = test system: YEM 27 C. albicans ΔCDR1ΔCDR2 ΔBENΔFLU1; test: microbe, parasite or virus in culture; settings: YEM 27, 24 hrs, 80% inhibition; for MIC of compound in the presence of fluconazole (+): 1/8 × MIC of fluconazole
Aspergillus fumigatus = test: FEPI MICs in combination with 1/4 the azole's MIC (Table 12); design: FEPI MIC (alone): unit not given here; settings: for FEPI MIC with itraconazole, 60% Inh / FEPI MIC with itraconazole, 80% Inh: itraconazole 0.063 μg/ml (1/4 MIC); for FEPI MIC with ketoconazole, 60% Inh / FEPI MIC with ketoconazole, 80% Inh: ketoconazole 4 μg/ml (1/4 MIC); for FEPI MIC (alone): no azole, 35° C., CM Broth
Procedure: The combinations were tested against a series of Candida strain with known expression of efflux pumps or with complete deletion of all known pumps and Aspergillus fumigatus. Results are reported as minimum inhibitory concentration (MIC) of […] in the presence or absence of […]. A total of 27 distinct milbemycins were studied.

[6] = YEM 53, 1/8 × MIC of fluconazole, 24 hrs, 80% inhibition
[7] = YEM 51, 1/8 × MIC of fluconazole, 24 hrs, 80% inhibition
[8] = YEM 30, 1/8 × MIC of fluconazole, 24 hrs, 80% inhibition
[9] = fluconazole 32 μg/ml (1/4 MIC), 60% inhibition
[10] = fluconazole 32 μg/ml (1/4 MIC), 80% inhibition

8-Methyl-5,6-dihydroxymilbemycin β1 [Compound 19]
MIC of compound in the presence of fluconazole (+) [1]: 16 µg/mL
MIC of compound in the absence of fluconazole (−) [1]: > 64 µg/mL
MIC of compound in the presence of fluconazole (+) [2]: ≦0.03
MIC of compound in the absence of fluconazole (−) [2]: > 64 µg/mL
MIC of compound in the presence of fluconazole (+) (YEM 53 C. krusei; [6]): 8 µg/mL
MIC of compound in the absence of fluconazole (−) (YEM 53 C. krusei; YEM 53, 24 hrs, 80% inhibition): > 64 µg/mL
MIC of compound in the presence of fluconazole (+) [3]: 64 µg/mL
MIC of compound in the absence of fluconazole (−) [3]: > 64 µg/mL
MIC of compound in the presence of fluconazole (+) (YEM 51 C. glabrata wt; [7]): > 64 µg/mL
MIC of compound in the absence of fluconazole (−) (YEM 51 C. glabrata wt; YEM 51, 24 hrs, 80% inhibition): > 64 µg/mL
MIC of compound in the presence of fluconazole (+) (YEM 30 C. albicans wt; [8]): ≦0.03
MIC of compound in the absence of fluconazole (−) (YEM 30 C. albicans wt; YEM 30, 24 hrs, 80% inhibition): 8 µg/mL
MIC of compound in the presence of fluconazole (+) [4]: 32 µg/mL
MIC of compound in the absence of fluconazole (−) [4]: > 64 µg/mL
MIC of compound in the presence of fluconazole (+) [5]: 16 µg/mL
MIC of compound in the absence of fluconazole (−) [5]: > 64 µg/mL
FEPI MIC with fluconazole, 60% Inh (Aspergillus fumigatus; [9]): 32
FEPI MIC with fluconazole, 80% Inh (Aspergillus fumigatus; [10]): 64
FEPI MIC with itraconazole, 60% Inh (Aspergillus fumigatus; 60% inhibition): 8
FEPI MIC with itraconazole, 80% Inh (Aspergillus fumigatus; 80% inhibition): >64
FEPI MIC with ketoconazole, 60% Inh (Aspergillus fumigatus; 60% inhibition): ≦0.063
FEPI MIC with ketoconazole, 80% Inh (Aspergillus fumigatus; 80% inhibition): ≦0.063
FEPI MIC (alone) (Aspergillus fumigatus; 80% inhibition): 64

8-Methyl-8-deoxymilbemycin β1 [Compound 24]
MIC of compound in the presence of fluconazole (+) [1]: 64 µg/mL
MIC of compound in the absence of fluconazole (−) [1]: > 64 µg/mL
MIC of compound in the presence of fluconazole (+) [2]: ≦0.03
MIC of compound in the absence of fluconazole (−) [2]: > 64 µg/mL
MIC of compound in the presence of fluconazole (+) (YEM 53 C. krusei; [6]): > 64 µg/mL
MIC of compound in the absence of fluconazole (−) (YEM 53 C. krusei; YEM 53, 24 hrs, 80% inhibition): > 64 µg/mL
MIC of compound in the presence of fluconazole (+) [3]: 1 µg/mL
MIC of compound in the absence of fluconazole (−) [3]: > 64 µg/mL
MIC of compound in the presence of fluconazole (+) (YEM 51 C. glabrata wt; [7]): 0.125 µg/mL
MIC of compound in the absence of fluconazole (−) (YEM 51 C. glabrata wt; YEM 51, 24 hrs, 80% inhibition): > 64 µg/mL
MIC of compound in the presence of fluconazole (+) (YEM 30 C. albicans wt; [8]): ≦0.03
MIC of compound in the absence of fluconazole (−) (YEM 30 C. albicans wt; YEM 30, 24 hrs, 80% inhibition): > 64 µg/mL
MIC of compound in the presence of fluconazole (+) [4]: > 64 µg/mL
MIC of compound in the absence of fluconazole (−) [4]: > 64 µg/mL
MIC of compound in the presence of fluconazole (+) [5]: 64 µg/mL
MIC of compound in the absence of fluconazole (−) [5]: > 64 µg/mL
FEPI MIC with fluconazole, 60% Inh (Aspergillus fumigatus; [9]): 64
FEPI MIC with fluconazole, 80% Inh (Aspergillus fumigatus; [10]): 64
FEPI MIC with itraconazole, 60% Inh (Aspergillus fumigatus; 60% inhibition): 64
FEPI MIC with itraconazole, 80% Inh (Aspergillus fumigatus; 80% inhibition): 64
FEPI MIC with ketoconazole, 60% Inh (Aspergillus fumigatus; 60% inhibition): ≦0.063
FEPI MIC with ketoconazole, 80% Inh (Aspergillus fumigatus; 80% inhibition): ≦0.063
FEPI MIC (alone) (Aspergillus fumigatus; 80% inhibition): 64

CC[C@H](C)[C@H]1O[C@]2(CC[C@@H]1C)C[C@@H]1C[C@@H](C/C=C(\C)[C@@H](O[C@H]3C[C@H](OC)[C@@H](O[C@H]4C[C@H](OC)[C@@H](O)[C@H](C)O4)[C@H](C)O3)[C@@H](C)/C=C/C=C3\CO[C@@H]4[C@H](O)C(C)=C[C@@H](C(=O)O1)[C@]34O)O2 [Compound 1, Ivermectin B1a]
MIC of compound in the presence of fluconazole (+) [1]: > 64 µg/mL
MIC of compound in the absence of fluconazole (−) [1]: > 64 µg/mL
MIC of compound in the presence of fluconazole (+) [2]: > 64 µg/mL
MIC of compound in the absence of fluconazole (−) [2]: > 64 µg/mL
MIC of compound in the presence of fluconazole (+) (YEM 53 C. krusei): 8 µg/mL
MIC of compound in the absence of fluconazole (−) (YEM 53 C. krusei; YEM 53, 24 hrs, 80% inhibition): > 64 µg/mL
MIC of compound in the presence of fluconazole (+) [3]: > 64 µg/mL
MIC of compound in the absence of fluconazole (−) [3]: > 64 µg/mL
MIC of compound in the presence of fluconazole (+) (YEM 51 C. glabrata wt): 64 µg/mL
MIC of compound in the absence of fluconazole (−) (YEM 51 C. glabrata wt; YEM 51, 24 hrs, 80% inhibition): > 64 µg/mL
MIC of compound in the presence of fluconazole (+) (YEM 30 C. albicans wt): ≦0.03
MIC of compound in the absence of fluconazole (−) (YEM 30 C. albicans wt; YEM 30, 24 hrs, 80% inhibition): > 64 µg/mL
MIC of compound in the presence of fluconazole (+) [4]: > 64 µg/mL
MIC of compound in the absence of fluconazole (−) [4]: > 64 µg/mL
MIC of compound in the presence of fluconazole (+) [5]: 64 µg/mL
MIC of compound in the absence of fluconazole (−) [5]: > 64 µg/mL
FEPI MIC with fluconazole, 60% Inh (Aspergillus fumigatus): >64
FEPI MIC with fluconazole, 80% Inh (Aspergillus fumigatus): >64
FEPI MIC with itraconazole, 60% Inh (Aspergillus fumigatus; 60% inhibition): >64
FEPI MIC with itraconazole, 80% Inh (Aspergillus fumigatus; 80% inhibition): >64
FEPI MIC with ketoconazole, 60% Inh (Aspergillus fumigatus; 60% inhibition): >64
FEPI MIC with ketoconazole, 80% Inh (Aspergillus fumigatus; 80% inhibition): >64
FEPI MIC (alone) (Aspergillus fumigatus; 80% inhibition): >64
